The source of these data is PMC4550849 (Scientific Reports, 2015).

For series [1], the system named is host lysosomal cathepsin B. The conditions noted are these: cited from earlier work.
A further series concerns SARS CoV Strain Urbani. The series is described as follows: microbe, parasite or virus in culture. The conditions noted are these: Severe acute respiratory syndrome coronavirus, Vero 76. The format is cell-based, SARS coronavirus.
Another series relates to caspase-1. It is filed as cell-based, mouse.
The test system of series [2] is Plasmodium falciparum phosphoethanolamine methyltransferase. The following applies: cited from earlier work.
Series [3] can be described thus: in vitro. The conditions noted are these: African green monkey.
Another series concerns the target cathepsin B (Homo sapiens, UniProt P07858). The format is binding.
In series [4] the test system is Human Cytomegalovirus (CMV, Strain AD169). Put plainly: microbe, parasite or virus in culture. The format is cell-based. The following applies: Human betaherpesvirus 5, AD169, HFF, 336 h.
In series [5] the test system is Venezuelan equine encephalitis virus (VEEV, Strain TC-83). Put plainly: microbe, parasite or virus in culture. The format is cell-based.
Another series concerns HeLa cells. The conditions noted are these: human.
Another series has as its target LF (Bacillus anthracis, UniProt P15917). The format is biochemical.
Series [6] deals with purified human cathepsin B (Homo sapiens, UniProt P07858). The format is biochemical. The conditions noted are these: 4, 8, 16, 33, or 66 μM; without pre-incubation; pH 5.8.
For series [7], the system named is RAW264.7 cells treated with Clostridium difficile toxin B. The series is described as follows: cells. The format is cell-based. The following applies: Mus musculus, RAW264.7, 6 h.
In series [8] the test system is Herpes Simplex Virus 1 (HSV-1, Strain E-377). The series is described as follows: microbe, parasite or virus in culture. The format is cell-based. The conditions noted are these: Human alphaherpesvirus 1, HFF, 72 h.
Series [9] concerns Respiratory syncytial virus (RSV): Strain A-2. The series is described as follows: microbe, parasite or virus in culture. The conditions noted are these: human respiratory syncytial virus, HEp-2. The format is cell-based.
Series [10] relates to anthrax toxin (LF + PA) lethality. On the set-up: species or system Sprague-Dawley rats. The conditions noted are these: rat, in vivo.
A further series deals with Chikungunya (CHIV). Put plainly: microbe, parasite or virus in culture. It is filed as cell-based.
In series [11] the test system is RAW264.7 cells treated with PA + FP59. It is filed as cell-based, mouse.
The test system of series [12] is PA83 binding to RAW264.7 cells. The format is cell-based, mouse.
The subject of another series is Rabies (Strain Flury). Put plainly: microbe, parasite or virus in culture. The format is cell-based. The following applies: Lyssavirus rabies, BHK-21, 120 h.
The test system of series [13] is RAW264.7 cells treated with Pseudomonas aeruginosa Exotoxin A. The series is described as follows: cells. It is filed as cell-based. The conditions noted are these: Mus musculus, RAW264.7, 6 h.
Series [14] in a line: in vitro. The conditions noted are these: rhesus monkey.
Another series relates to Ebola virus (EBOV). The series is described as follows: microbe, parasite or virus in culture. It is filed as cell-based. The following applies: Zaire ebolavirus, HFF-1, 48 h.
The test system of series [15] is acidic vesicles in RAW264.7 cells. The format is cell-based, mouse. The following applies: AQ 1 h, 500 ng/ml PA 1 h.
Another series has as its system Ebola. The following applies: in vivo; cited from earlier work.
Series [16] is described as follows: in vitro. The conditions noted are these: human.
Another series relates to Ebola virus. The following applies: cited from earlier work.
For a further series, the system named is Poliovirus: WM3. The series is described as follows: microbe, parasite or virus in culture. The format is cell-based, Poliovirus 3. The conditions noted are these: Enterovirus C, LLC-MK2.
In the next series the test system is Ebola virus (Kikwit). Put plainly: microbe, parasite or virus in culture. It is filed as cell-based. The conditions noted are these: Zaire ebolavirus, HeLa.
The nature of series [17]: in vitro. The following applies: hamster.
The test system of a further series is Junin (JUNV). The series is described as follows: microbe, parasite or virus in culture. It is filed as cell-based, Junin virus. The conditions noted are these: Mammarenavirus juninense.
Series [18] deals with RAW264.7 cells treated with Cholera toxin. Put plainly: cells. The following applies: Mus musculus, RAW264.7, 6 h. It is filed as cell-based.
A further series has as its system MEK-2. It is filed as cell-based, mouse.
Series [19] deals with RAW264.7 cells treated with anthrax lethal toxin (PA + LF).
Series [20] deals with C32 cells treated with diphtheria toxin. The format is cell-based, human.
Series [21] is described as follows: in vitro. The conditions noted are these: human. The source holds these as a separate data set.
For another series, the system named is endosomal acidification. The conditions noted are these: cited from earlier work.
The test system of series [22] is RAW264.7 cells treated with anthrax lethal toxin (PA + LF). The series is described as follows: cells. The conditions noted are these: Mus musculus, RAW264.7, read-out: EC50, reduction of anthrax toxin-mediated cytotoxicity.
The conditions of series [23]: human, in vivo, cited from earlier work.

Chain of LF (P15917 34-809 limits assumed): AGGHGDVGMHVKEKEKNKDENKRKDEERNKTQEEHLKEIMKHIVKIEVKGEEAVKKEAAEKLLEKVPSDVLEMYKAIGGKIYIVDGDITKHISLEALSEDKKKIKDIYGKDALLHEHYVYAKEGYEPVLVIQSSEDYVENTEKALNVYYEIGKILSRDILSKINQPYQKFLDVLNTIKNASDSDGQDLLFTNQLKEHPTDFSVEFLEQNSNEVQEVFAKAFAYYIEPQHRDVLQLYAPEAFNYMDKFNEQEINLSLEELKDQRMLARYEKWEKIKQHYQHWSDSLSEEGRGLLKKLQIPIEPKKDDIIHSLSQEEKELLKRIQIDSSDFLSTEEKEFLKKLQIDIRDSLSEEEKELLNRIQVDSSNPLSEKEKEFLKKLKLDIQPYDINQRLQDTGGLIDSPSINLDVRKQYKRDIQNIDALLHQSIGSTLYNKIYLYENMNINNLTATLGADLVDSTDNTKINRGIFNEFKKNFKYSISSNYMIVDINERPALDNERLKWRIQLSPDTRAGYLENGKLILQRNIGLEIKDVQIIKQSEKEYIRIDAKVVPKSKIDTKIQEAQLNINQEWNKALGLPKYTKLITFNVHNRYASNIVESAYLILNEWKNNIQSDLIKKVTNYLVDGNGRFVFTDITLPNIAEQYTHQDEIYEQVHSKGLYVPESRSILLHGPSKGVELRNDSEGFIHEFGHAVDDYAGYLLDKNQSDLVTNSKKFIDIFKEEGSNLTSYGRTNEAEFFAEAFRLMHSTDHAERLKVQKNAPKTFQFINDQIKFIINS

On to CA-074, for which, in series [1], the “accumulation of PA pores in late endosomes” value is recorded as “elevated accumulation”, the “cellular sensitivity to LF-PA” value is “reduction of cellular sensitivity” and the “release of LF from the late endosomes into the cytoplasm” value is reported as “inability of LF to be released”.

Consider `CCN(CC)Cc1cc(Nc2ccnc3cc(Cl)ccc23)ccc1O` [AQ, Amodiaquine], for which the half-maximal effective concentration (EC50) (commonly the concentration at which the effect is half-maximal) was 2.4 µM in the series on SARS CoV Strain Urbani; above 60 µM in series [4]; 3.2 µM in [5]; 4.6 µM in series [7]; above 60 µM in series [8]; 32 µM in series [9]. Besides, the EC50 in the series with Chikungunya (CHIV) is 18.4 µM; in the series on Rabies (Strain Flury), 5.7 µM; in series [13] it was above 66.7 µM; in the series on Ebola virus (EBOV), 2.6 µM; in the series on Poliovirus: WM3, above 100 µM; with Ebola virus (Kikwit) it was 2.4 µM. For the same molecule, the EC50 was 2 µM in the series with Ebola virus (Kikwit) (24 h), 4 µM in the series on Ebola virus (Kikwit) (48 h), 16.9 µM in the series on Junin (JUNV) and above 66.7 µM in series [18]. Besides, the “active caspase-1 after LF-PA treatment (FLICA)” value in the series with caspase-1 is given as “not detected”. Moreover, in series [2], the “inhibition of Plasmodium falciparum phosphoethanolamine methyltransferase” value was “inhibits”. In addition, the CC50 was 32 µM in “in vitro [3]”; above 50 µM in the series on HeLa cells; above 100 µM in the series “in vitro [14]”; 50 µM in the series “in vitro [16]” (CC50); above 10 µM in the series “in vitro [17]”. The “binding to cathepsin B (STD difference spectrum)” value at cathepsin B (2 mM AQ, 20 μM cathepsin B (100:1)) was “binding to the enzyme”. Also, the “STD effect, atom H4” value at cathepsin B (relative to H4 atom (100%)) worked out at 100%. Moreover, the “STD effect, atom H5” value at cathepsin B (relative to H4 atom (100%)) worked out at 97%. Moreover, the “proteolytic activity of LF on MAPKK peptide (emission at 523 nm)” value at LF is “does not block”. In addition, in series [6], the “inhibition of purified human cathepsin B activity” value was “directly inhibit cathepsin B activity in a dose dependent manner”. Moreover, the “rats saved after lethal anthrax toxin challenge” value in [10] came to 40%. In addition, in series [10], the “survival after lethal anthrax toxin challenge” value is on record as “all survived”. The “sensitivity of cells to PA + FP59” value in series [11] is “less sensitive”. The “binding of PA83 to cells” value in series [12] is given as “did not block”. Besides, the “proteolytic processing of PA to generate PA63” value in [12] is recorded as “did not block”. Moreover, the “cell-associated Lysosensor fluorescence (acidic organelles)” value in series [15] is reported as “markedly decreased”. Besides, the “reduction of Ebola mortality risk” value with Ebola is 31%. Moreover, the “Ebola virus pathogenicity in cells” value in the series on Ebola virus is recorded as “inhibit Ebola virus pathogenicity in cells”. Besides, the “LF-PA-mediated cleavage of MEK2” value in the series on MEK-2 is listed as “completely prevented”. Besides, the “protection of host cells against anthrax toxin killing (cell viability, MTT)” value (from here on “protection of host cells”) in series [19] is recorded as “completely protect”. Moreover, the “sensitivity of host cells to PA83 + LF and PA63 + LF” value in series [19] is given as “equally reduces sensitivity”. Besides, the “inhibition of diphtheria toxin cell killing (multiplex hit)” value in series [20] is reported as “inhibited”.

For `C=C[C@H]1C[N@@]2CC[C@H]1C[C@@H]2[C@@H](O)c1ccnc2ccccc12` [Cinchonine], the “protection of host cells” value in series [19] is “none”.

In the case of `CCN(CC)CCCC(C)Nc1ccnc2cc(Cl)ccc12` (centres unmarked) [CQ, Chloroquine], the “inhibition of purified human cathepsin B activity” value in series [6] is listed as “weaker inhibitors”. The results for the CC50 in “in vitro [21]” and in the series “in vitro [16]” (CC50) were 70 µM and 100 µM, respectively. The endosomal acidification entry in the series with endosomal acidification is “prevent endosomal acidification”. For the same molecule, the EC50 with Ebola virus (EBOV) is 2.5 µM; in the series with Ebola virus (Kikwit) (48 h), 4.8 µM. Further, in the series with Ebola virus, the “Ebola virus pathogenicity in cells” value is “inhibit Ebola virus pathogenicity in cells”. Further, the “inhibition of diphtheria toxin cell killing (multiplex hit)” value in [20] is “inhibited”.

As to `COc1cc(NC(C)CCCN)c2ncccc2c1` (centres unmarked) [Primaquine], in [19], the “protection of host cells” value is “none”.

Turning to `CCNCCCC(C)Nc1ccnc2cc(Cl)ccc12` (centres unmarked) [DECQ, Desethyl-Chloroquine], the “inhibition of purified human cathepsin B activity” value in series [6] is on record as “weaker inhibitors”. Further, the CC50 worked out at 70 µM in the series “in vitro [21]” and 100 µM in “in vitro [16]” (CC50). Besides, the 50% effective concentration (EC50) came to 3.2 µM in the series with Ebola virus (EBOV) and 7.3 µM with Ebola virus (Kikwit) (48 h).

Regarding `C=C[C@H]1C[N@@]2CC[C@H]1C[C@@H]2[C@@H](O)c1ccnc2ccc(OC)cc12` [Quinidine], the “protection of host cells” value in series [19] is reported as “none”.

`CCNCc1cc(Nc2ccnc3cc(Cl)ccc23)ccc1O` [DEAQ, Desethyl-Amodiaquine]: the concentration for a half-maximal effect (EC50) was 5 µM in series [22]; 17.3 µM with Chikungunya (CHIV); 2.1 µM in the series with Ebola virus (EBOV); 2 µM in the series on Ebola virus (Kikwit) (24 h); 4 µM in the series with Ebola virus (Kikwit) (48 h); 13.8 µM in the series with Junin (JUNV). For the same molecule, the terminal half-life in series [23] (po) was 220 to 432 h. Also, the “Cmax (maximal amounts of drug in the blood after oral administration)” value in series [23] was “low μM range”. Besides, the “inhibition of purified human cathepsin B activity” value in series [6] is reported as “directly inhibit cathepsin B activity in a dose dependent manner”. Also, the CC50 is 50 µM in the series “in vitro [16]” (CC50); above 50 µM in “in vitro [16]” (CC50, 24 h); above 50 µM in “in vitro [16]” (CC50, 48 h).
